This is an account of results in ChEMBL document CHEMBL1134114, “Novel sulfonate derivatives: potent antimitotic agents” (Bioorg Med Chem Lett, 2001).

A value given as a limit tells only on which side of the number the result lay.

The subject of assay [1] is HCT-15. In words: Antiproliferative activity against human colon carcinoma HCT-15 cell line(MDR(+)); Inactive at >10 uM.
The subject of assay [2] is NCI-H460. As to the kind of experiment: Antiproliferative activity against human lung carcinoma NCI-H460 cell line (MDR(-)); Inactive at >10 uM.
Assay [3] deals with HCT-15. In words: Antiproliferative activity against human colon carcinoma HCT-15 cell line(MDR(+)).
Assay [4] relates to NCI-H460. As to the kind of experiment: Antiproliferative activity against human lung carcinoma NCI-H460 cell line (MDR(-)).
Assay [5] has as its target Tubulin alpha chain (Sus scrofa, UniProt P02550). In words: Concentration inhibiting tubulin polymerization. The class given is functional.

Chain of Tubulin alpha chain (P02550 whole entry, looked up): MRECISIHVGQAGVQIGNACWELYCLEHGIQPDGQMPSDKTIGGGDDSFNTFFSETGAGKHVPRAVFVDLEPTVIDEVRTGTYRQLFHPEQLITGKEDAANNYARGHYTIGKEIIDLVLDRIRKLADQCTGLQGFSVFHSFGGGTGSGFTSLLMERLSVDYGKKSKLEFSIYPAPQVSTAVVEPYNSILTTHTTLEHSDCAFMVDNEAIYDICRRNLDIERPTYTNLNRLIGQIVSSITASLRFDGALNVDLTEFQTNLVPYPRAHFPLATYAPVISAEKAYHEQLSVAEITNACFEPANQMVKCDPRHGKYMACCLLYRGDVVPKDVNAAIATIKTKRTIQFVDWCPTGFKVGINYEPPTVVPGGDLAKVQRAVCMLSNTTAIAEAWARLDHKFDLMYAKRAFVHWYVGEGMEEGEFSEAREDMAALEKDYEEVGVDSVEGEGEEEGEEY

For `COc1ccc(S(=O)(=O)Oc2cccnc2NC(=O)c2ccncc2)cc1`, the half-inhibitory concentration (IC50) entry in assay [1] and in assay [2] was “Not Active” throughout.

As to `COc1ccc(S(=O)(=O)Oc2ccccc2NC(=O)c2ccc3ncccc3c2)cc1`, the IC50 in assay [3] and in assay [4] was above 10000 nM in each case.

In the case of `COc1ccc(S(=O)(=O)Oc2ccccc2NC(=O)c2ccc(N(C)C)cc2)cc1`, the IC50 in assay [3] and in assay [4] was above 10000 nM each time.

For `COc1ccc(S(=O)(=O)Oc2ccccc2NC(=O)c2cnccn2)cc1`, the figures for the IC50 in assay [5], in assay [3] and in assay [4] were 5200 nM, 68 nM and 250 nM, respectively.

As to `COc1ccc(S(=O)(=O)Oc2ccccc2C(=O)Nc2ccccc2C)cc1`, the IC50 entry in assay [1] and in assay [2] was “Not Active” in each case.

For the compound `COc1ccc(S(=O)(=O)Oc2ccccc2NC(=O)c2ccnc3ccccc23)cc1`, the IC50 in assay [3] and in assay [4] was above 10000 nM in each case.

Consider `COc1ccc(S(=O)(=O)Oc2cccnc2NC(=O)c2ccco2)cc1`, for which the IC50 entry in assay [1] and in assay [2] was “Not Active” throughout.

As for `COc1ccc(S(=O)(=O)Oc2ccccc2C(=O)Nc2ccccc2)cc1`, the IC50 entry in assay [1] and in assay [2] was “Not Active” in each case.

Turning to `COc1ccc(S(=O)(=O)Oc2ccccc2/C=C/c2ccncc2)cc1`, the 50% inhibitory concentration (IC50) in assay [5] came to 3460 nM; in assay [3], 56 nM; in assay [4] it was 130 nM.

With `COc1ccc(S(=O)(=O)Oc2ccccc2NC(=O)c2ccccc2)cc1`, the figures for the IC50 in assay [3] and in assay [4] were 310 nM and 410 nM, respectively.

Consider `COc1ccc(S(=O)(=O)Oc2ccccc2C(=O)Nc2ccncc2)cc1`, for which the IC50 result in assay [1] and in assay [2] was “Not Active” each time.

Consider `COc1ccc(S(=O)(=O)Oc2ccccc2NC(=O)c2ccc(F)cc2)cc1`, for which the IC50 in assay [3] was 89 nM; in assay [4], 550 nM.

Consider `COc1ccc(S(=O)(=O)Oc2ccccc2NC(=O)c2ccncc2)cc1`, for which the results for the IC50 in assay [5], in assay [3] and in assay [4] were 3730 nM, 89 nM and 55 nM, respectively.

Turning to `COc1ccc(S(=O)(=O)Oc2ccccc2NC(=O)c2cccnc2)cc1`, the IC50 in assay [3] is above 3000 nM; in assay [4], above 6000 nM.

With `COc1ccc(S(=O)(=O)Oc2ccccc2NC(=O)c2ccccn2)cc1`, the IC50 in assay [5] amounted to 4060 nM; in assay [3] it was 110 nM; in assay [4], 300 nM.

Consider `COc1ccc(S(=O)(=O)Oc2ccccc2NC(=O)Oc2ccccc2)cc1`, for which the IC50 in assay [3] and in assay [4] was above 10000 nM in each case.

As for `COc1ccc(S(=O)(=O)Oc2ccccc2C(=O)Nc2ccc(F)cc2)cc1`, the IC50 entry in assay [1] and in assay [2] was “Not Active” throughout.

As to `COc1ccc(S(=O)(=O)Oc2ccccc2NC(=O)c2ccco2)cc1`, the IC50 in assay [3] is 19 nM; in assay [4], 24 nM.

As for `COc1ccc(S(=O)(=O)Oc2ccccc2NC(=O)Cc2ccncc2)cc1`, the values for the half-maximal inhibitory concentration (IC50) in assay [3] and in assay [4] were 600 nM and 720 nM, respectively.

As to `COc1ccc(S(=O)(=O)Oc2ccccc2NC(=O)Nc2ccccc2)cc1`, the half-maximal inhibitory concentration (IC50) in assay [3] and in assay [4] was above 10000 nM throughout.

`COc1ccc(S(=O)(=O)Nc2cccnc2Nc2ccc(O)cc2)cc1` [ABT-751]: the IC50 in assay [5] stood at 3100 nM; in assay [3] it was 340 nM; in assay [4], 350 nM.
